Test results from article PMC12444508, “Mechanistic Insights into the Anticancer Action of Novel 2‑Hydroxy-1,4-naphthoquinone Thiol Derivatives” (ACS Omega, 2025).

What was measured:
[1] = system: primary normal human gingival fibroblasts; assay: MTT cell viability assay, primary gingival fibroblasts; assay type: cell-based; conditions: Homo sapiens, Fibroblast; 72 h, MTT; read-out: IC50 primary gingival fibroblast
Protocol: (§1) Human SCC-4, SCC-9, and SCC-25 cells, derived from a human oral tongue SCC (squamous cell carcinoma), were obtained from ATCC (CRL-1624, CRL-1629, and CRL-1628, respectively) and maintained in 1:1 DMEM/F12 (Dulbecco’s modified Eagle’s medium and Ham’s F12 medium; Gibco (Thermo Fisher, Waltham, MA, USA)) supplemented with 10% (v/v) FBS (fetal bovine serum; Invitrogen, Thermo Fisher, Waltham, MA, USA) and 400 ng/mL hydrocortisone (Sigma-Aldrich Corporation, St. Louis, MO, USA). B16-F10 (melanoma; CRL-6475), HCT-116 (colorectal cancer; CCL-247), and HepG2 (liver cancer; HB-8065), in addition to primary normal human gingival fibroblasts obtained from ATCC (PCS-201-018), were maintained in DMEM supplemented with 10% (v/v) of FBS and were used in a maximum of six passages. Cells were grown in a humidified environment containing 5% CO2 at 37 °C. For all biological assays, compounds and shikonin were solubilized in 100% DMSO (all Sigma-Aldrich Corp.) to a final concentration of 10 mM and lapachol in ethanol. The carboplatin control was prepared in water (Fauldcarbo; Libbs Farmacêutica, São Paulo, SP, Brazil) and was used as a standard anticancer compound.
(§2) The viability of OSCC cell lines and primary human fibroblast cells was assessed using the MTT assay as in ref . Briefly, cells were grown in triplicate in 96-well plates (5 × 10^3 cells/well) until confluence. Then, the medium was removed, fresh medium was added, and the cells were returned to the incubator in the presence of different compounds. DMSO at the same concentration was used as a control for 100% cell viability. After 72 h, cells were incubated with 0.5 mg/mL of MTT reagent (3-(4,5-dimethyl-2-thiazolyl)-2,5-diphenyl-2-H-tetrazolium bromide) (Sigma-Aldrich Corporation, Louis, MO, USA) for 3.5 h. Then, the wells containing the cells were washed with PBS heated to 37 °C, the formazan crystals were dissolved in a solvent solution (DMSO/methanol 1:1 v/v), and the absorbance was read at 560 nm using an EPOCH microplate spectrophotometer (BioTek Instruments, Winooski, VT, USA) with the background absorbance at 670 nm subtracted. Control chemotherapeutics (carboplatin and shikonin) were used.
Data are presented as means ± SD. IC50 values for the MTT assays were obtained by nonlinear regression using the […] 8.4.3.0 program (Intuitive Software for Science, San Diego, CA, USA) from at least three independent experiments. A dose–response curve (inhibitor) vs response using the least-squares method was used to determine the IC50, SD, and R2 of the data. The selectivity index was calculated as SI = IC50 of the compound in normal oral fibroblast cells/IC50 of the same compound for each oral cancer cell line (SCC-4, SCC-9, and SCC-25) and averaged when indicated.

HepG2 (liver cancer) = assay: MTT cytotoxicity/selectivity, HepG2; assay type: cell-based; conditions: vs normal oral fibroblasts
Protocol: as §1
as §2, with “DMSO at the same concentration was used as a control for 100% cell viability. After 72 h, cells were incubated with 0.5 mg/mL of MTT reagent (3-(4,5-dimethyl-2-thiazolyl)-2,5-diphenyl-2-H-tetrazolium bromide) (Sigma-Aldrich Corporation, Louis, MO, USA) for 3.5 h.” left out, “Control chemotherapeutics (carboplatin and shikonin) were used.” left out
(§3) Data are presented as means ± SD. […] The selectivity index was calculated as SI = IC50 of the compound in normal oral fibroblast cells/IC50 of the same compound for each oral cancer cell line (SCC-4, SCC-9, and SCC-25) and averaged when indicated.

B16-F10 (melanoma) = assay: MTT cytotoxicity/selectivity, B16-F10; assay type: cell-based; conditions: vs normal oral fibroblasts
Protocol: as §1
as §2, with “DMSO at the same concentration was used as a control for 100% cell viability. After 72 h, cells were incubated with 0.5 mg/mL of MTT reagent (3-(4,5-dimethyl-2-thiazolyl)-2,5-diphenyl-2-H-tetrazolium bromide) (Sigma-Aldrich Corporation, Louis, MO, USA) for 3.5 h.” left out, “Control chemotherapeutics (carboplatin and shikonin) were used.” left out
as §3

C57BL/6 mice = assay: In vivo acute toxicity study; conditions: single intraperitoneal dose 100, 200 and 400 mg/kg, 14 days
Protocol: . All experiments were carried out in accordance with Brazilian guidelines and regulations. Dosing and analysis were performed in accordance with 423 OECD guidelines and reviewed by. Each group of animals had n = 3 and received only one intraperitoneal injection (Day 0) of compounds 7a and 7e dissolved in […] of PBS and 3% DMSO. Animals in the control group received only 3% DMSO in PBS. The first dose of the compound was 100 mg/kg. Subsequent dose levels (200 mg/kg and 400 mg/kg) were determined based on the result obtained from the previous dose. Animals were examined daily, twice a day, for mortality and morbidity for 14 days, when all animals were anesthetized (ketamine 100 mg/kg and xylazine 10 mg/kg) followed by cervical dislocation. Macroscopic necropsy of the main organs was performed. The animals’ body weight and average food consumption were measured every 7 days. As an indicator of morbidity, the following signs were evaluated: tremors, seizure, salivation, diarrhea, and lethargy, along with the signs of pain, increased back arching, and mobility disability. The necropsy included examination of the external characteristics of the carcass; external orifices of the body; the abdominal, thoracic, and cranial cavities; and organs/tissues of the liver, thymus, right kidney, right testicle, heart, and lung.

[2] = system: active caspase 3/7 in SCC-9 cells; assay: Active caspase 3/7 staining; assay type: cell-based, human; conditions: 2 × IC50, 24 h
Protocol: The following reagents were used in this assay: CellEvent Caspase-3/7 Green Ready Probes Reagent kit (R37111, Thermo Fisher, Waltham, Massachusetts, USA). SCC-9 cells were plated in 24-well microplates in the amount of 5 × 10^4 cells per well as previously described in ref . […] The duration of the treatment time was 24 h. After this period, the cells were taken to the Zeiss Axio Observer A1 fluorescence optical microscope (Zeiss, Oberkochen, Baden-Württemberg, Germany) to obtain caspase labeling images from five different fields. Data quantification was performed using the ImageJ program, and the values of reactive cells for caspase were compared in relation to the total number of cells per field, and the result was given as a percentage.

SCC-9 cells = assay: Reactive oxygen species production (ROS-Glo H2O2); assay type: cell-based, human; conditions: 2 × IC50, 24, 48 and 72 h, menadione positive control
Protocol: The assay was performed in SCC-9 cells as previously described. […] Menadione (M9529, Sigma-Aldrich Corporation, San Luis, Mo., USA), at a concentration of 20 μM, served as a positive control, while DMSO, at equivalent concentrations to the test substances, served as the negative control. Cells were then incubated at 37 °C with 5% CO2 for the indicated time, and ROS was measured by ROS-Glo H2O2 Assay G8820 (Promega Corporation, Madison, WI 53711 USA) as indicated by the vendor. The luminescence signal was measured using a luminescence detector, Luminometer TD-20/20 (Turner Designs Instrument, Sunnyvale, CA, USA).

SCC-9-LC3-GFP cells = assay: Autophagy assay (LC3-GFP puncta); assay type: cell-based, human; conditions: 1 × IC50, 48 h
Protocol: To determine whether compounds 7a and 7e induce autophagy, SCC-9 cells were stably transduced with the plasmid expressing LC3-GFP as described. […] As a positive control, we used compound 8 (Supplementary Figure S1), an already described naphthoquinone-triazole-coumarin hybrid, able to induce autophagy at its IC50 concentration, 30 μM. After 48 h, the cells were visualized using a Zeiss Axio Observer A1 Fluorescence Optical Microscope (Zeiss, Oberkochen, Baden-Württemberg, Germany) to observe the formation of typical autophagy spots and photographed using a high-resolution monochromatic microscopy camera (Axiocam 503 mono, resolution: 1936 × 1460 pixels, pixel size: 4.54 μm × 4.54 μm) to maximize sensitivity and image quality.

SMILES	IC50 [1] [µM]	selective index (SI) HepG2 hepatocellular carcinoma (HepG2 (liver cancer))	selective index (SI) B16-F10 melanoma (B16-F10 (melanoma))	abdominal cavity and macroscopic organs at necropsy (C57BL/6 mice)	body weight and food consumption vs control animals (C57BL/6 mice)	cells with positive staining for active caspases 3 and 7 [2] [%]	ROS production (SCC-9 cells)	cells with LC3-positive puncta (autophagosome formation) (SCC-9-LC3-GFP cells) [%]
COc1ccc(SC2C3=C(OC(C)(C)C2Sc2ccc(OC)cc2)C(=O)c2ccccc2C3=O)cc1 (stereo not shown) [7e, 3,4-Bis((4-methoxyphenyl)thio)-2,2-dimethyl-3,4-dihydro-2H-benzo[g]chromene-5,10-dione]	110	3.4	7.5	no morphological changes or lesions	no significant difference	78.6	induced the generation of ROS	7.4
CC1(C)OC2=C(C(=O)c3ccccc3C2=O)C(Sc2ccccc2)C1Sc1ccccc1 (stereo not shown) [7a, 2,2-Dimethyl-3,4-bis(phenylthio)-3,4-dihydro-2H-benzo[g]chromene-5,10-dione]	57.3	2.1	1.4	no morphological changes or lesions	no significant difference	71	induced the generation of ROS	20.5
